Positions of bridges follow the written chain, without caps; N, C: chain ends. Residues, ends and D or L forms follow the SMILES beside them.
Test: The compound was tested for inhibition of streptavidin binding to the TentaGel-bound Ac-HPQFG peptide

Row | IC50 | Molecule
1 | 0.73 µM | CC[C@H](C)[C@H](NC(=O)[C@H]1CSSC[C@H](NC(=O)[C@H](CCC(=O)O)NC(=O)[C@H](C)N)C(=O)N[C@@H](Cc2c[nH]cn2)C(=O)N2CCC[C@H]2C(=O)N[C@@H](CCC(N)=O)C(=O)NCC(=O)N2CCC[C@H]2C(=O)N2CCC[C@H]2C(=O)N1)C(=O)N[C@@H](CCC(=O)O)C(=O)NCC(=O)N[C@@H](CCCN=C(N)N)C(=O)N[C@@H](CCCCN)C(N)=O
2 | 19 µM | C[C@@H]1NC(=O)CNC(=O)[C@H](Cc2ccccc2)NC(=O)[C@H](CCC(N)=O)NC(=O)[C@@H]2CCCN2C(=O)[C@H](Cc2c[nH]cn2)NC(=O)[C@H](C)NC(=O)CC[C@@H](C(=O)N[C@@H](CCCCN)C(N)=O)NC1=O (AHPQFGAEK-NH2; lactam N-8)
3 | 0.128 µM | C[C@@H]1NC(=O)CC[C@@H](C(=O)N[C@@H](CCCCN)C(N)=O)NC(=O)[C@H](C)NC(=O)[C@@H]2CCCN2C(=O)[C@H](Cc2ccccc2)NC(=O)[C@H](CCC(N)=O)NC(=O)[C@@H]2CCCN2C(=O)[C@H](Cc2c[nH]cn2)NC1=O (AHPQFPAEK-NH2; lactam N-8)
4 | > 5000 µM | C[C@@H]1NC(=O)CC[C@@H](C(=O)N[C@@H](CCCCN)C(N)=O)NC(=O)[C@H](C)NC(=O)[C@H](Cc2ccccc2)NC(=O)[C@H](Cc2c[nH]cn2)NC(=O)CNC(=O)[C@H](Cc2ccc(O)cc2)NC(=O)[C@H](CCC(N)=O)NC1=O (AQYGHFAEK-NH2; lactam N-8)
5 | 204 µM | Ac-AHPQFGAEK-NH2
6 | 136 µM | Ac-AHPQFPAEK-NH2

— ChEMBL document CHEMBL1130947, “Tight-binding streptavidin ligands from a cyclic peptide library” (Bioorg Med Chem Lett, 1998)
